Target: QPCTL (Homo sapiens (Human), UniProt Q9NXS2)
Experiment: QPCTL inhibition, SensoLyte Green Glutaminyl Cyclase Activity Assay
Assay type: biochemical
Conditions: 0.8 nM 2x enzyme solution, 45 min at 37° C., 50 mM Tris pH 8.0, 1% DMSO
Description: Preparation of working solution: 2×Glutaminyl Cyclase substrate was diluted in assay buffer to […]. 2×enzyme solution and QPCTL was diluted in assay buffer to 0.8 nM. Glutaminyl Cyclase Developer was diluted in assay buffer to 1×(containing 10 mM 1-Benzyl-Imidazole). Serial dilution of test compounds was performed in DMSO. The final DMSO concentration in 100 μl reaction was 1%. The assay buffer was 50 mM Tris, pH 8.0, 0.01% BSA.
Procedure: 50 μL of 2×Glutaminyl Cyclase substrate solution was added into the assay plate followed by 50 μL of 2×enzyme solution. The plate was centrifuged for 1 min at 1000 rmp. Next the plate was incubated for 45 minutes at 37° C. This was followed by the additional of 50 μL of the prepared Glutaminyl Cyclase developer and incubated for additional 30 min at 37° C. Results were read on SpectraMax Paradigm detecting with emission at Ex/Em=490 nm/520 nm.
A Z′ value was calculated for each assay plate. The Z′ value must be >0.5 or the plate was disqualified. […] Results were calculated using GraphPad Prism 7 software is used for IC50 determination.

Sequence of QPCTL (Q9NXS2 whole entry, species assumed): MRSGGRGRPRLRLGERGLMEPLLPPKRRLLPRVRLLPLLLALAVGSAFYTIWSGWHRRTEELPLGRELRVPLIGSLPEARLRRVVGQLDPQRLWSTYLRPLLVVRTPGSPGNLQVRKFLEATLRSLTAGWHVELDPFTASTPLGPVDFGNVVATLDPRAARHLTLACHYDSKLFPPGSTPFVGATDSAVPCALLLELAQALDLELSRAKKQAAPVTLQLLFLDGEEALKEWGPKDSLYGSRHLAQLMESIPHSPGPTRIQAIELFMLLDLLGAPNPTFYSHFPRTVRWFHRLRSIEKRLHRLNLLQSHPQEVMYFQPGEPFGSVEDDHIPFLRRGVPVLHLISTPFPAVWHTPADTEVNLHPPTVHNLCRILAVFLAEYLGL

| SMILES | IC50 |
| --- | --- |
| Cc1cc(-n2cnc(C(F)(F)F)c2)ncc1[C@H]1[C@@H](C2CC2)C(=O)N1c1ccc2[nH]cnc2c1 (single isomer, unassigned) [Compound 73B] | < 2 nM |
| C=C1C(=O)N(c2ccc3[nH]cnc3c2)C1c1c(F)cc(OCCC(F)F)cc1F (racemic) [Compound 22, (racemic)-1-(1H-benzo[d]imidazol-5-yl)-4-(4-(3,3-difluoropropoxy)-2,6-difluorophenyl)-3-methyleneazetidin-2-one] | < 2 nM |
| C[C@H]1C(=O)N(c2ccc3[nH]cnc3c2)[C@H]1c1c(F)cc(-c2cnn(C(F)F)c2)cc1F (single isomer, unassigned) [Compound 17B] | < 2 nM |
| C[C@H]1C(=O)N(c2ccc3[nH]cnc3c2)[C@H]1c1c(F)cc(OCCC2CC2)cc1F (racemic) [Compound 34CR, (Cis and racemic)-1-(1H-benzo[d]imidazol-5-yl)-4-(4-(2-cyclopropylethoxy)-2,6-difluorophenyl)-3-methylazetidin-2-one] | < 2 nM |
| CN1CCN(c2cc(F)c(C3CC(=O)N3c3ccc4[nH]cnc4c3)c(F)c2)CC1 (racemic) [Compound 4, 1-(1H-benzo[d]imidazol-5-yl)-4-(2,6-difluoro-4-(4-methylpiperazin-1-yl)phenyl)azetidin-2-one] | 2 to 25 nM |
| Cc1nc(-c2cnn(C(F)(F)F)c2)ccc1[C@H]1[C@@H](C2CC2)C(=O)N1c1ccc2[nH]cnc2c1 (single isomer, unassigned) [Compound 68B] | < 2 nM |
| Cc1nc(-n2cnc(C(F)(F)F)c2)ccc1[C@H]1[C@@H](C2CC2)C(=O)N1c1ccc2[nH]cnc2c1 (single isomer, unassigned) [Compound 72B] | < 2 nM |
| O=C1[C@H](O)[C@H](c2c(F)cc(-c3cnn(C(F)F)c3)cc2F)N1c1ccc2[nH]cnc2c1 (racemic) [Compound 25CR] | < 2 nM |
| O=C1[C@@H](C2CC2)[C@@H](c2c(F)cc(-c3cn(C(F)(F)F)nn3)cc2F)N1c1ccc2[nH]cnc2c1 (single isomer, unassigned) [Compound 50A] | 25 to 1000 nM |
| C[C@H]1C(=O)N(c2ccc3[nH]cnc3c2)[C@H]1c1c(F)cc(OCC(C)(C)O)cc1F (single isomer, unassigned) [Compound 32B] | < 2 nM |
| Cc1cc(-c2ccc(C(F)(F)F)nn2)ccc1[C@H]1[C@@H](C2CC2)C(=O)N1c1ccc2[nH]cnc2c1 (single isomer, unassigned) [Compound 67B] | < 2 nM |
| Cc1ccc(-c2cc(F)c([C@H]3[C@@H](C4CC4)C(=O)N3c3ccc4[nH]cnc4c3)c(F)c2)nn1 (single isomer, unassigned) [Compound 65B] | < 2 nM |
| O=C1[C@H](C2CC2)[C@H](c2c(F)cc(-c3ccc(C(F)(F)F)nn3)cc2F)N1c1ccc2[nH]cnc2c1 (single isomer, unassigned) [Compound 52B] | < 2 nM |
| O=C1[C@@H](C2CC2)[C@@H](c2c(F)cc(-c3ccc(C(F)(F)F)nn3)cc2F)N1c1ccc2[nH]cnc2c1 [Compound 52A] | 25 to 1000 nM |
| C[C@@H]1C(=O)N(c2ccc3[nH]cnc3c2)[C@@H]1c1c(F)cc(-c2cnn(C(F)(F)F)c2)cc1F (single isomer, unassigned) [Compound 14A] | 25 to 1000 nM |
| O=C1[C@@H](O)[C@H](c2c(F)cc(-c3cnn(C(F)(F)F)c3)cc2F)N1c1ccc2[nH]cnc2c1 (racemic) [Compound 16TR] | 25 to 1000 nM |
| Cc1ccc(-c2ccc([C@H]3[C@@H](C4CC4)C(=O)N3c3ccc4[nH]cnc4c3)c(C)n2)nn1 (single isomer, unassigned) [Compound 71B] | < 2 nM |
| Cc1cc(-n2cnc(C(F)(F)F)c2)ccc1[C@@H]1[C@H](C2CC2)C(=O)N1c1ccc2[nH]cnc2c1 (single isomer, unassigned) [Compound 74A] | 25 to 1000 nM |
| O=C1[C@H](C2CC2)[C@H](c2ccc(-c3cnn(C(F)(F)F)c3)cn2)N1c1ccc2[nH]cnc2c1 (single isomer, unassigned) [Compound 46B] | < 2 nM |
| O=C1[C@@H](C2CC2)[C@@H](c2ccc(-c3cnn(C(F)(F)F)c3)cc2)N1c1ccc2[nH]cnc2c1 (single isomer, unassigned) [Compound 55A] | 25 to 1000 nM |
| Cc1nc(-c2ccc(C(F)(F)F)nn2)ccc1[C@@H]1[C@H](C2CC2)C(=O)N1c1ccc2[nH]cnc2c1 (single isomer, unassigned) [Compound 70A] | 25 to 1000 nM |
| Cc1cc(-c2cnn(C(F)(F)F)c2)ccc1[C@@H]1[C@H](C2CC2)C(=O)N1c1ccc2[nH]cnc2c1 (single isomer, unassigned) [Compound 56A] | 25 to 1000 nM |

| SMILES | IC50 |
| --- | --- |
| Cc1ncc(-c2cc(F)c([C@H]3[C@@H](C)C(=O)N3c3ccc4[nH]cnc4c3)c(F)c2)s1 (racemic) [Compound 11CR, (cis and racemic)-1-(1H-benzo[d]imidazol-5-yl)-4-(2,6-difluoro-4-(2-methylthiazol-5-yl)phenyl)-3-methylazetidin-2-one] | 2 to 25 nM |
| Cc1nc(-c2cc(F)c([C@H]3[C@@H](C)C(=O)N3c3ccc4[nH]cnc4c3)c(F)c2)cs1 (racemic) [Compound 10CR, (cis and racemic)-1-(1H-benzo[d]imidazol-5-yl)-4-(2,6-difluoro-4-(2-methylthiazol-4-yl)phenyl)-3-methylazetidin-2-one] | 2 to 25 nM |
| C[C@H]1C(=O)N(c2ccc3[nH]cnc3c2)[C@H]1c1c(F)cc(-c2cnn(C)c2)cc1F (single isomer, unassigned) [Compound 13B] | 2 to 25 nM |
| C[C@H]1C(=O)N(c2ccc3[nH]cnc3c2)[C@H]1c1ccc(OCCC(F)F)nc1 (racemic) [Compound 23CR, (cis and racemic)-1-(1H-benzo[d]imidazol-5-yl)-4-(6-(3,3-difluoropropoxy)pyridin-3-yl)-3-methylazetidin-2-one] | 2 to 25 nM |
| C=C1C(=O)N(c2ccc3[nH]cnc3c2)[C@H]1c1c(F)cc(OCCC(F)F)cc1F (single isomer, unassigned) [Compound 22B] | < 2 nM |
| O=C1[C@H](CC(F)(F)F)[C@H](c2c(F)cc(-c3cnn(C(F)(F)F)c3)cc2F)N1c1ccc2[nH]cnc2c1 (single isomer, unassigned) [Compound 54B] | < 2 nM |
| O=C1[C@@H](C2CC2)[C@@H](c2c(F)cc(-c3cnn(C(F)(F)F)c3)cc2F)N1c1ccc2[nH]cnc2c1 (single isomer, unassigned) [Compound 35A] | 25 to 1000 nM |
| O=C1N(c2ccc3[nH]cnc3c2)C(c2c(F)cc(OCCC(F)F)cc2F)C12CCC2 (racemic) [Compound 3, 2-(1H-benzo[d]imidazol-5-yl)-3-(4-(3,3-difluoropropoxy)-2,6-difluorophenyl)-2-azaspiro[3.3]heptan-1-one] | 25 to 1000 nM |
| C[C@@H]1C(=O)N(c2ccc3[nH]cnc3c2)[C@H]1c1c(F)cc(OCCC2CC2)cc1F (racemic) [Compound 34TR, (Trans and racemic)-1-(1H-benzo[d]imidazol-5-yl)-4-(4-(2-cyclopropylethoxy)-2,6-difluorophenyl)-3-methylazetidin-2-one] | 25 to 1000 nM |
| O=C1[C@H](C2CC2)[C@H](c2c(F)cc(-c3cnn(C(F)(F)F)c3)cc2F)N1c1ccc2[nH]cnc2c1 (single isomer, unassigned) [Compound 35B] | < 2 nM |
| O=C1[C@H](C2CC2)[C@H](c2ccc(-c3cnn(C(F)(F)F)c3)cc2Cl)N1c1ccc2[nH]cnc2c1 (single isomer, unassigned) [Compound 75B] | < 2 nM |
| C[C@H]1C(=O)N(c2ccc3[nH]cnc3c2)[C@H]1c1c(F)cc(N2CCC(F)(F)CC2)cc1F (single isomer, unassigned) [Compound 30B] | 2 to 25 nM |
| O=C1[C@@H](C2CC2)[C@@H](c2ccc(OCCC(F)F)nc2)N1c1ccc2[nH]cnc2c1 (single isomer, unassigned) [Compound 45A] | 25 to 1000 nM |
| O=C1[C@H](C2CC2)[C@H](c2c(F)cc(-n3ccc(C(F)(F)F)n3)cc2F)N1c1ccc2[nH]cnc2c1 (single isomer, unassigned) [Compound 48B] | < 2 nM |
| O=C1[C@H](C2CC2)[C@H](c2ccc(-c3cnn(C(F)(F)F)c3)cc2C(F)(F)F)N1c1ccc2[nH]cnc2c1 (single isomer, unassigned) [Compound 76B] | > 1000 nM |
| O=C1[C@H](C2CC2)[C@H](c2c(F)cc(-n3cnc(C(F)(F)F)c3)cc2F)N1c1ccc2[nH]cnc2c1 (single isomer, unassigned) [Compound 61B] | < 2 nM |
| O=C1[C@@H](C2CC2)[C@@H](c2ccc(-c3cnn(C(F)(F)F)c3)cc2C(F)(F)F)N1c1ccc2[nH]cnc2c1 (single isomer, unassigned) [Compound 76A] | < 2 nM |
| CC1C(=O)N(c2ccc3[nH]cnc3c2)C1c1c(F)cc(OCCC(F)F)cc1F (racemic) [Compound 7, 1-(1H-benzo[d]imidazol-5-yl)-4-(4-(3,3-difluoropropoxy)-2,6-difluorophenyl)-3-methylazetidin-2-one] | 2 to 25 nM |
| O=C1C(O)C(c2c(F)cc(OCCC(F)F)cc2F)N1c1ccc2[nH]cnc2c1 (racemic) [Compound 8, (cis and racemic)-1-(1H-benzo[d]imidazol-5-yl)-4-(4-(3,3-difluoropropoxy)-2,6-difluorophenyl)-3-hydroxyazetidin-2-one] | 2 to 25 nM |
| Cc1cc(-c2cc(F)c([C@H]3[C@@H](C4CC4)C(=O)N3c3ccc4[nH]cnc4c3)c(F)c2)on1 (single isomer, unassigned) [Compound 62B] | < 2 nM |
| O=C1[C@H](O)[C@H](c2c(F)cc(OCCC(F)F)cc2F)N1c1ccc2[nH]cnc2c1 (single isomer, unassigned) [Compound 8B] | < 2 nM |

Source: US11834440B2, “Beta-lactam derivatives for the treatment of diseases” (Insilico Medicine IP Limited, priority 2021, dated 2023)
